Legend:
[1] = test system: Pieris brassicae; experiment: Antifeedant activity against fasted third-instar larvae of Pieris brassicae infested in compound-treated Brassica oleracea leaves at 1000 ppm after 48 hr by leaf-disc method relative to control; type: functional
[2] = test system: Pieris brassicae; experiment: Insecticidal activity against fasted third-instar larvae of Pieris brassicae infested in compound-treated Brassica oleracea leaves assessed as mortality at 1000 ppm after 6 days relative to control; type: functional; conditions: 144 h

`CCCCCCCCC/C=C\CCC[C@@H](O)[C@@H](O)[C@H](CO[C@@H]1O[C@H](CO)[C@@H](O)[C@H](O)[C@H]1O)NC(=O)[C@H](O)CCCCCCCCCCCCCCCCCCCCCC` showed an Activity [1] of 62% and a mortality at 1000 ppm [2] of 50%.
`CCCCCCCCC/C=C/CCC[C@@H](O)[C@@H](O)[C@H](CO)NC(=O)[C@H](O)CCCCCCCCCCCCCCCCCCCCCC` was tested, and the Activity [1] was 3% and the mortality at 1000 ppm [2] was 0%.
With `CCCCCCCCCCCCC/C=C/[C@@H](O)[C@H](CO)NC(=O)[C@H](O)CCCCCCCCCCCCCCCCCCCCCC` the Activity [1] was 0% and the mortality at 1000 ppm [2] was 0%.
For `C/C=C(\C)C(=O)O[C@H]1C[C@@H](OC(C)=O)[C@@]2(C(=O)OC)CO[C@H]3[C@@H](O)[C@@](C)([C@]45O[C@@]4(C)[C@@H]4C[C@H]5O[C@@H]5OC=C[C@@]54O)[C@H]4[C@]1(CO[C@]4(O)C(=O)OC)[C@@H]32` [AZADIRACHTIN A], the Activity [1] was 99.5% and the mortality at 1000 ppm [2] was 100%.
`C=C1[C@@H]2[C@@H](OC(=O)C=C[C@@]2(C)[C@H]2CC(=O)OC2(C)C)[C@H](OC(C)=O)[C@@]2(C)[C@H](C3=CCN(C(=O)CCNN)C3=O)C[C@H]3O[C@]132` [MUNRONIAMIDE] showed an Activity [1] of 27.6% and a mortality at 1000 ppm [2] of 10%.

Source: ChEMBL document CHEMBL3045808, “Insect antifeedants from Munronia henryi: structure of munroniamide” (2003)
